Data on four compounds can be found in US20040167226A1, “Methods for the treatment of pain and traumatic injury using benzamides and compositions containing the same” (priority 2002, published 2004).

Data set [1] relates to Taxol-induced mechanical allodynia. As to the kind of experiment: Taxol-induced neuropathic pain rat model, 50% paw withdrawal threshold (up-down method). The format is in vivo, Sprague-Dawley rats. Particulars: rats, 50 mg/kg p.o. in 1% methylcellulose (positive control). The source says: Sprague-Dawley male rats with 150-160 grams of body weight were used in the studies presented herein. Rats were trained in the enclosure one hour per day in the morning for a one week period prior to obtaining the baseline response. Whereas the mouse studies assessed percentage of response, the rat studies determined 50% of the paw withdrawal threshold, also called the up-down method as developed by Chung and colleagues. In order to obtain consistent data, naïve rats with paw withdrawal threshold no less than 4 grams were included for further studies. Taxol at a dose of 1 mg/kg (body weight) was administered daily to rats intraperitoneally. As observed in mice, the rats treated with Taxol daily developed stable mechanical allodynia on day 9 and thereafter. On day 13 and day 14 of Taxol induction, the rats pain behavior in term of 50% of paw withdrawal threshold was measured. Only those rats with paw withdrawal threshold measurements no greater than 7 grams for two consecutive days were included for drug testing. Generally speaking, the mechanical allodynia in Taxol treated rats fell in the range of 1-4 gram of paw withdrawal threshold.
1 ml per kg of body weight of either 50 mg/ml or 20 mg/ml of Compound A was administered to rats via oral gavage feeding (p.o.), to yield a dose of either 50 mg/Kg (body weight) or 20 mg/Kg (body weight). The same corresponding volume of 1% methylcellulose was used as vehicle control. 34 male Sprague-Dawely rats were employed for the study. The baseline paw withdrawal threshold (grams of force applied to the plantar area of the right hind paw) and neuropathic pain induction with daily intraperitoneal administration of 1 mg/kg (body weight) was performed as indicated in the previous section. The Taxol treatment was continued for 15 days until the pain threshold remained relatively stable. Animals with baseline greater than 4 grams and with threshold […] post induction were included in the drug testing. 27 rats met the criteria for the next step studies and were randomly assigned into four groups. Group 1 consisting of 7 rats was given 1% methylcellulose as vehicle control group, 1 ml of vehicle per kilograms of body weight was administered to animal via p.o.; group 2 with 6 animals was dosed at 20 mg/kg (body weight) of Compound A via oral gavage feeding (p.o.); group 3 with 7 rats was dosed at 50 mg/kg of Compound A, and the fourth group with 7 rats received Gabapentine at 50 mg/kg via p.o. in the same vehicle as a positive control group. Those rats were habituated in the enclosure and 50% of paw withdrawal thresholds (grams of force) were measured using a set of von Frey filaments, as described in the previous section, at time points of 1, 2, 3, 6, and 24 hours postdosing in a blinded fashion. The tester had no knowledge of which animals received drug or vehicle. It was noted that rats tested were very sleepy in the late afternoon (for 6 hour postdosing measurement), thus the data would not be reliable for 6-hour postdosing time points. […] After finishing the 24 hour postdosing measurement, the paw withdrawal threshold of each animal was calculated and data was analyzed.

Data set [2] is described as follows: PK parameter estimates, 30 mg/kg po in 1% methyl cellulose. The format is in vivo, rats. Particulars: rat, plasma, rats, 30 mg/kg po in 1% methyl cellulose, n = 3. The source says: The time course of plasma concentration of compound N is depicted in FIG. 1 as well.

Turning to `NCC1(CC(=O)O)CCCCC1` [Gabapentine, reference compound], the “time of peak analgesic effect postdosing” value in data set [1] was 3 to 6 h.

In turn, `CC(=O)Nc1cccc(C(=O)NC(C)(C)C)c1` [Compound D, N-tert-butyl-3-acetamidobenzamide] displayed a melting point of 194 to 195 °C.

As for `CC(C)(C)NC(=O)c1ccc(N)cc1` [Compound N, N-tert-butyl-4-aminobenzamide], the melting point was 125 to 127 °C. Besides, in data set [2], the AUC(0-inf) was 1030 µg·h/mL, the Cmax is 5400 ng/mL and the Tmax was 30 min. Also, the half-life in data set [2] (read-out: Elim.t1/2 (converted)) is 14.8 days.

Compound `CC(C)(C)NC(=O)c1cccc([N+](=O)[O-])c1` [Compound G, N-tert-butyl-3-nitrobenzamide] returned a melting point of 123 to 125 °C.
